From patent US8129425B2, “Small organic molecule regulators of cell proliferation” (Curis, Inc., priority 2000, dated 2012)

Columns and labels:
ptc-lacZ skin punches = test: Skin explants from ptc-lacZ pups (X-Gal stain); assay type: cell-based, mouse; settings: agonist alone, cultured 6 days
Protocol: Skin from ptc-lacZ E17.5 pups was excised with a 2 mm skin punch. Those skin punches were then cultured for 6 days in control media, or media including either agonist B or D or Hh protein, or media including both an agonist and Hh protein. The explants were then stained with X-Gal stain.

[1] = system: cerebellar neuron precursors; test: Cerebellar neuron precursor proliferation (3H-thymidine incorporation); assay type: cell-based, rat; settings: for induction of 3H thymidine incorporation: absence of Shh
Protocol: In order to test the efficacy of Hedgehog signaling agonists, the ability of the agonists to stimulate the proliferation of cerebellar neuron precursors was determined. Cerebellar granule neuron precursors are known to respond to Hh protein by proliferating. To test the agonists, cerebellar neurons were dissected out of postnatal (one week) rat brains, and placed into primary cell culture. Treatment agents were added once, on the first day of culture (0 DIV). Cells were left in culture until 2 DIV, when 3H-thymidine was added for 5 hours; the amount of incorporation by the cells of this 3H-thymidine provides a measure of the level of proliferation of the cells. Cells were then lysed, and the incorporation of 3H-thymidine was determined. The positive control was Hh protein, at 1.0 μg/ml final concentration. Hh protein alone caused approximately a 20-fold increase in 3H-thymidine incorporation, consistent with the known ability of Shh to stimulate proliferation of these cells. Non-Hh-protein-stimulated cells, including cells treated with control vehicle (DMSO), had very low levels of proliferation. […] At 5.0 μM, the p-cyanophenyl compound B caused 10.2-fold induction of 3H-thymidine incorporation. […] At 1.0, 0.3, or 0.1 μM, D caused 16-, 17-, or 13-fold induction, respectively, of 3H thymidine incorporation into the cells.

[2] = system: diabetic neuropathy (nerve conduction, vasa nervorum, NGF); test: Streptozotocin (STZ) diabetic rat model of diabetic neuropathy; assay type: in vivo
Protocol: Diabetes was induced in male Wistar rats (Charles River, UK or Harlan, San Diego, USA) with an intraperitoneal injection (55 mg/kg) of streptozotocin (STZ; Sigma) given after an overnight fast. The drug was freshly dissolved in sterile saline immediately before injection. Three days later, tail vein blood glucose was measured by a strip-operated reflectance photometer and any STZ-treated rats with blood glucose <15 mmol/l were removed from the study. Rats were group-housed with free access to food and water in a 12 h light/dark cycle. At the end of each study, blood samples were collected from all rats, plasma extracted and plasma glucose levels measured by spectophotometric assay using a commercial kit (Sigma, St. Louis, Mo.). […] Motor nerve conduction velocity (MNCV) was measured from latencies of the compound M waves of the electromyogram in the hindlimb, and sensory nerve conduction velocity (SNCV) was measured from H reflex latencies in the same system. […] Stimulation of the nerve was performed at the sciatic notch and Achilles tendon and evoked electromyograms were recorded from the interosseus muscles of the foot. […] NGF was measured in extracts from segments of sciatic nerve by ELISA as described by P. Fernyhough et al. Human recombinant nerve growth factor replaces deficient neurotrophic support in the diabetic rat. […]

CNC1CCC(N(Cc2ccc(OC)c(-c3ccc(C#N)cc3)c2)C(=O)c2sc3ccccc3c2Cl)CC1 (stereo not shown) [D]
X-Gal staining of skin explants (ptc-lacZ skin punches): Analogous results
induction of 3H thymidine incorporation ([1]; 0.1 μM): 13 fold
induction of 3H thymidine incorporation ([1]; 0.3 μM): 17 fold
induction of 3H thymidine incorporation ([1]; 1.0 μM): 16 fold
stimulation of 3H-thymidine incorporation ([1]; absence of Hh protein treatment): strongly stimulated 3H-thymidine incorporation
blood flow to the damaged nerves (sciatic vasa nervorum) ([2]; laser Doppler perfusion imaging and BS-1 lectin fluorescent imaging): improved
levels of nerve growth factor (NGF) in the sciatic nerve ([2]; rat STZ model): increased levels of nerve growth factor (NGF)
